From US7329638B2, “Drug delivery compositions” (priority 2003, dated 2008)
pIC50: −log10 of the molar value. Several values for one entry are separate records, joined by “and”; a condition that tells them apart may be missing. Equal entries are not always repeated.

Columns and labels:
[1] = tested on: implanted tumors; test: Tumor regression in tumor-bearing mice, intratumoral injection (RNase series); type: in vivo; conditions: excised thirty days (4 weeks) after initial treatment
Description: Drugs were administered by intratumoral injection. Injections were started 3 weeks after tumor cell implantation when tumors reached the size about 100 mm^3. Thirty days after initial treatment, mice were sacrificed and their tumors were excised, weighed, and photographed.
For example, in test animals an average tumor weight of 2.92±0.47 g (N=5) was observed 4 weeks after treatment (Lane 4; FIG. 11B) that was statistically indistinguishable from the value of 3.16±0.65 g (Lane 2 in FIG. 11B) of the control group without treatment. […] The addition of protamine to the heparin-inhibited TAT-RNase conjugates completely reversed inhibition and tumor growth was regressed to an insignificant weight of 0.09±0.05 g (Lane 5; FIG. 11B).

[2] = tested on: CT26 colon carcinoma; test: Tumor regression in CT-26 tumor-bearing mice, intratumoral injection (gelonin series); type: in vivo, BALB/c mice
[3] = tested on: murine tumor tissues; test: Tumor penetration of rhodamine-labeled gelonin and TAT-Gel; type: in vivo, mice; conditions: tumors isolated at 10 hrs after injection
Excerpt: FIGS. 18A and 18B show tumor penetration of rhodamine-labeled TAT-Gel conjugates (FIG. 18A), and free gelonin (FIG. 18B). Tumors were isolated at 10 hrs after injection of the rhodamine-labeled TAT-Gel conjugate or free gelonin and then photographed.
To further confirm that TAT-Gel conjugates penetrate into tumor tissues, rhodamine-labeled gelonin was used in several additional in vivo studies. […] The extremely efficient tumor penetration and widespread drug distribution capabilities of the compositions and methods of the present invention are of great significance to anticancer therapy.

[4] = tested on: CT-26 murine adenocarcinoma colon cancer cells; test: MTT cytotoxicity in CT-26 cells in log-phase culture; type: cell-based; conditions: CT-26, MTT
Description: Various doses of each test compound were added to 96-well culture plates containing approximately 5,000 cells/well. The plates were incubated for 48 hrs at 37° C. under an atmosphere of 5% CO2 in humidified air. Remaining cells were assessed using MTT and compared to untreated control wells. Values shown are means±standard deviation.
Cytotoxicity was measured as described in FIG. 8.
Various doses of each compound were added to 96-well culture plates containing approximately 5,000 cells/well. The plates were incubated for 48 hrs at 37° C. under an atmosphere of 5% CO2 in humidified air in an incubator. Test cells were assessed by MTT assay and then compared to untreated cells in control wells. Values are represented as means±standard deviation. Each experiment was performed in triplicate.
In additional embodiments, the cytotoxicity of gelonin and the TAT-Gel conjugates were examined in CT-26 murine adenocarcinoma colon cancer cells in log-phase culture.

[5] = tested on: MCF-7 cells; test: Cellular uptake of FITC-labeled gelonin and TAT-Gel (FACS and confocal microscopy); type: cell-based; conditions: MCF-7, FITC label, 10 nM, 1 hr at 37° C.
Description: FIGS. 7A-7D show the cellular uptake of TAT and TAT-Gel conjugates into MCF-7 cells. The left two panels provide confocol microphotograph sections of DIC image and corresponding fluorescent images, whereas right panels show FACS results (ordinate, number of cells, abcissa, fluorescent intensity). Cells were treated with FITC-labeled gelonin (FIG. 7A); TAT-Gel (FIG. 7B); TAT-Gel+heparin (FIG. 7C); and TAT-Gel+heparin and then+protamine (FIG. 7D). Protein concentration was adjusted to 10 nM, and the incubation time was 1 hr at 37° C.
In certain embodiments, the TAT-mediated cell internalization and the cytotoxicity of TAT-Gel were examined in vitro in MCF-7 and CT-26 cell cultures. The membrane-transducing ability of the TAT-Gel conjugates was determined using fluorescence (FITC)-labeled gelonin or TAT-Gel added to the culture media of MCF-7 cells, followed by analysis by both the fluorescence activated cell sorting (FACS) and confocol microscopy. […] On the other hand, almost all of the FITC labels were found inside, and specifically inside the cytosol (see confocol results), of all (˜100%) cells (see the FACS data) within one hour of incubation of the cells with the TAT-Gel conjugates (FIG. 7B). Considering the fact that gelonin exerts its cytotoxic activity via binding with ribosomes and cleaving RNA, this cytosolic localization actually yields beneficial therapeutic affects. […]

[6] = tested on: MCF-7 cells; test: Cell translocation and uptake kinetics of FITC-labeled LMWP and TAT; type: cell-based
Description: Cells were incubated with the FITC-labeled peptides and then lysed. Fluorescence intensities in the supernatants were measured.
In some embodiments, purified LMWP was prepared according to the method described in L.C. Chang et al., AAPS PharmSci., 3(2) Article 17 [2001]. In some additional embodiments, cell internalization characteristics of TAT and LMWP were compared by confocol microscopy using FITC-labeled peptides. Like TAT, after 15 min of incubation with MCF-7 cells at 37° C., more than 70% of the FITC-labeled LMWP entered the cytosol of the MCF-7 cells (FIG. 13). […] The reason for the difference in cell localization remains unclear, however, while the present invention is not limited to any particular mechanism, it is contemplated that TAT, which contains the sequence of the nuclear localization signal (NLS) peptide, can penetrate into the cell's nucleus either through pores on the nuclear envelope, or via binding with certain cytoplasmic components which confer nuclear localization. (L. Chaloin et al., Biochem. Biophys. Res. Commun., 243:601-608 [1998]; and M. A. Zanta M A et al., Proc. Natl. Acad. Sci. USA, 96:91-96 [1999]). In some embodiments, the localization of TAT and TAT-like peptides can be directed to the cytoplasm or to other sites within the cell by making altering portions of its amino acid sequence. (See e.g., M. M. Gottesman et al., Nature Reviews Cancer, 2:48-58 [2002]). In some preferred embodiments, the sequence of the PTD component/subcomponent of the drug delivery composition is selected or modified (e.g., amino acid sequence altered) so that the composition and the therapeutic molecule(s) being carried are localized to the cytoplasm. The present invention contemplates that in certain embodiments the localization of the drug delivery compositions to the cytoplasm aids in the penetration of the therapeutic molecules throughout the targeted tissue (e.g., from the tumor periphery to the tumor core).
FIG. 14 provides a comparison of the rate of cellular uptake of LMWP and TAT. […]

[7] = tested on: CT-26 cells; test: Translocation of rhodamine-labeled gelonin by TAT or LMWP (fluorescence microscopy); type: cell-based; conditions: CT-26, 2 hrs incubation
Description: FIGS. 15A and 15B show the translocation of gelonin into the CT-26 cells with the aid of: TAT (FIG. 15A); or LMWP (FIG. 15B). Fluorescent microscopy was conducted on cells treated with rhodamine-labeled TAT- or LMWP-gelonin following 2 hrs of incubation in CT-26 cells.
In some embodiments, studies were preformed to compare the capabilities of LMWP and TAT in protein translocation. In some of these embodiments, the LMWP and TAT peptides were conjugated to gelonin using the PDPH method described herein. To create a -SH group for coupling, LMWP was modified prior to its conjugation by treatment with SPDP and DTT, using the protocol established by J. Carlsson et al., (J. Carlsson et al., Biochem. J., 173:723-737 [1978]). Gelonin was labeled with rhodamine prior to conjugation.

[8] = oral administration; cited from earlier work
[9] = tested on: MCF7/ADR cells; test: MTT cytotoxicity and drug accumulation in doxorubicin resistant MCF7/ADR cells; type: cell-based; conditions: for pIC50: Homo sapiens, NCI/ADR-RES, 48 h, MCF7/ADR, 48 hrs exposure, MTT
Description: In some embodiments, monolayer doxorubicin sensitive (MCF7) and resistant (MCF7/ADR) cells were then exposed to either doxorubicin or TAT-Dox conjugates at various concentrations (up to 100 μM) for 48 hrs in the presence or absence of 10 μM verapamil. Cell viability was measured by MTT assay. […] Verapamil, a P-glycoprotein inhibitor, was able to restore most of the cytotoxic activities of free doxorubicin.

## RNase
[1]
  average tumor mass: 2.92 ± 0.47 g

## gelonin
[2]; excised thirty days (four weeks) after initial treatment, intratumoral, 9 treatments
  average tumor mass: 2.63 ± 0.5 g and 2.62 ± 0.53 g
[2]; two and four weeks after intratumoral injection
  gross appearance of tumor after treatment: not cytotoxic to the tumor
[3]
  tumor penetration (rhodamine staining of excised tumor): virtually no staining or only sporadic weak staining
[4]
  cytotoxicity / inhibition of cell growth (in words): did not induce cell death
[4]; listed as Gelonin
  cytotoxicity / inhibition of cell growth (in words): did not display any detectable inhibition on cell growth
[5]
  cellular uptake (confocal and FACS, in words): virtually no cellular uptake

## TAT: highly cationic 11 amino acid section of the TAT-peptide (YGRKKRRQRRR; SEQ ID NO:6)
[6]; MCF-7
  rate of cellular uptake (comparison in words): slightly faster cellular uptake than LMWP
[6]; MCF-7, FITC-labeled peptides
  incubation time at which cellular concentration reached a maximum: 30 min
[6]; MCF-7, after 30 min incubation
  subcellular localization: primarily localizes in the nucleus
[7]
  translocation of rhodamine-labeled gelonin into cells: capable of translocating gelonin

## N[C@@H](Cc1ccc(O)c(O)c1)C(=O)O [levodopa, L-3,4-dihydroxy-phenylalanine]
[8]
  fraction that penetrates the CNS: less than 1%

## COc1cccc2c1C(=O)c1c(O)c3c(c(O)c1C2=O)C[C@@](O)(C(=O)CO)C[C@@H]3O[C@H]1C[C@H](N)[C@H](O)[C@H](C)O1 [Dox, doxorubicin]
[9]; Verapamil (10 μM)
  pIC50: 5.17
[9]; without verapamil
  pIC50: 4.34
[9]; MCF7/MDR cells
  IC50 of free doxorubicin relative to Dox-TAT conjugates: ~8 fold
[9]; MDR cells
  amount of doxorubicin seen in cells by fluorescence microscopy: negligible amount
